Assay results: US10758549B2, “Compositions of obeticholic acid and methods of use” (Intercept Pharmaceuticals, Inc., priority 2015, dated 2020)

Legend:
Surface area by BET = assay type: physicochemical
Method: The impact of jet-milling on API particle size and surface area is detailed in Table 4-1 and Table 4-2, respectively. Surface area was tested per a BET (Brunauer, Emmett, and Teller theory). The BET method for analyzing surface area is based on adsorption of gas on a surface. The amount of gas adsorbed at a given pressure allows a determination of the surface area.

patients with PBC = assay: Example 9: randomized double-blind placebo-controlled 12-month trial of OCA in PBC; assay type: in vivo, human; conditions: for Patients who achieved response (ALP<1.67×ULN, ALP reduction ≥15%, TB≤ULN) at Month 6 / Patients who achieved response (ALP<1.67×ULN, ALP reduction ≥15%, TB≤ULN) at Month 12: ITT; for patients who experienced an increase in ALP: 12 months (placebo 36%); for Response at Month 6 [1] / Response at Month 12 [1]: Table 25 analysis; for ALP < 1.67 × ULN and Decrease ≥ 15% at Month 6 [3] / ALP < 1.67 × ULN and Decrease ≥ 15% at Month 12 [3] / ALP < 1.67 × ULN at Month 6 [3] / ALP < 1.67 × ULN at Month 12 [3] / Decrease in ALP ≥ 15% at Month 6 [3] / Decrease in ALP ≥ 15% at Month 12 [3]: patients with Baseline ALP ≥ 1.67 × ULN but < 2.0 × ULN; for ALP < 2.0 × ULN and Decrease ≥ 40% at Month 6 [2] / ALP < 2.0 × ULN and Decrease ≥ 40% at Month 12 [2] / ALP < 2.0 × ULN at Month 6 [2] / ALP < 2.0 × ULN at Month 12 [2] / Decrease in ALP ≥ 40% at Month 6 [2] / Decrease in ALP ≥ 40% at Month 12 [2]: patients with Baseline ALP ≥ 2.0 × ULN
Method: This example describes a randomized, double-blind, placebo-controlled, parallel-group, 12-month trial evaluating OCA in patients with PBC as a monotherapy.
Patients with inflammatory bowel disease or who had undergone gastric bypass procedures were excluded (gastric lap band was acceptable). • Medical conditions that could cause non-hepatic increases in ALP (e.g., Paget's disease)
ALP and TB composite response criteria were measured; a patient was designated as a responder if all three of the following conditions were met: • A value of ALP<1.67×ULN • ALP reduction from baseline ? 15% • A value of TB<ULN
The absolute and percent change from Baseline in ALP, gamma-glutamyl transferase (GGT), alanine aminotransferase (ALT), AST, total bilirubin, conjugated (direct) bilirubin, albumin, prothrombin time and international normalized ratio (INR) at all-time points was measured. The percentage of patients with a decrease in ALP of ? 10%, ? 15%, ? 20%, and ? 40% from Baseline or ? ULN at month 12 was measured. The percentage of patients achieving the following biochemical response criteria was also measured: • ALP ? 3×ULN and AST ? 2×ULN and bilirubin ? ULN ((Corpechot 2008);
Bile acid sequestrant (BAS) concomitant exposure. The primary analysis set used for all efficacy analyses, along with the summarization of disposition along with demographics and baseline characteristics, was the ‘Intent-to-Treat’ (ITT) analysis set. This analysis set included all randomized patients who received at least one dose of blinded study drug. When utilizing this analysis set, patients were analyzed according to the treatment group that they were randomized to regardless of the actual treatment received. It should be noted that all but one randomized patient received at least one dose of blinded study drug.
A Cochran-Mantel-Haenszel (CMH) test which adjusted for both randomization stratification variables as described above, was used for pre-specified analysis. In tandem with the CMH test, a Breslow-Day test was also conducted, to test for the homogeneity of the treatment effect across the different randomization strata.

[1] = 10 mg OCA (N = 73), listed as Obeticholic acid

Compound: CC[C@H]1[C@@H](O)[C@@H]2[C@H](CC[C@]3(C)[C@@H]([C@H](C)CCC(=O)O)CC[C@@H]23)[C@@]2(C)CC[C@@H](O)C[C@@H]12 [OCA, 3α,7α-dihydroxy-6α-ethyl-5β-cholan-24-oic acid]
- surface area increase after jet-milling (Surface area by BET): approximately 3 fold
- ALP Absolute Change from Baseline to Month 12 (U/L), Mean (patients with PBC; 10 mg OCA): −11|7.1 U/L
- ALP Absolute Change from Baseline to Month 12 (U/L), Median (patients with PBC; 10 mg OCA): −99.0 U/L
- ALP Percentage Change from Baseline to Month 12 (%), Mean (patients with PBC; 10 mg OCA): −36.4%
- ALP Percentage Change from Baseline to Month 12 (%), Median (patients with PBC; 10 mg OCA): −38.3%
- Month 12 ALP Concentration (U/L), Mean (patients with PBC; 10 mg OCA): 191.2 U/L
- Month 12 ALP Concentration (U/L), Median (patients with PBC; 10 mg OCA): 181.7 U/L
- Month 12 ALP Concentration (×ULN), Mean (patients with PBC; 10 mg OCA): 1.606 ×ULN
- Month 12 ALP Concentration (×ULN), Median (patients with PBC; 10 mg OCA): 1.527 ×ULN
- Patients with ALP < 1.67 × ULN at Month 12 (patients with PBC; 10 mg OCA (N = 73)): (54.8%)
- Patients with Decrease in ALP ≥ 10% at Month 12 (patients with PBC; 10 mg OCA (N = 73)): (83.6%)
- Patients with Decrease in ALP ≥ 15% at Month 12 (patients with PBC; 10 mg OCA (N = 73)): (78.1%)
- Patients with Decrease in ALP ≥ 20% at Month 12 (patients with PBC; 10 mg OCA (N = 73)): (74.0%)
- Patients with Decrease in ALP ≥ 40% at Month 12 (patients with PBC; 10 mg OCA (N = 73)): (34.3%)
- Patients who achieved response (ALP<1.67×ULN, ALP reduction ≥15%, TB≤ULN) at Month 6 (patients with PBC; 10 mg OCA (N = 73)): 37 (50.7%)
- Patients who achieved response (ALP<1.67×ULN, ALP reduction ≥15%, TB≤ULN) at Month 6 (patients with PBC; [1]): 37 (51) %
- Patients who achieved response (ALP<1.67×ULN, ALP reduction ≥15%, TB≤ULN) at Month 12 (patients with PBC; [1]): 34 (47) %
- Patients with Decrease in ALP ≥ 15% at Month 12 (patients with PBC; 10 mg OCA (N = 73), listed as obeticholic acid): 77%
- patients who experienced an increase in ALP (patients with PBC; 10 mg obeticholic acid): 2%
- up-titrated patients who met the composite endpoint (patients with PBC; 33 patients titrated from 5 mg to 10 mg at Month 6): 39%
- ALP Absolute Change from Baseline to Month 12 (U/L), Median (patients with PBC; OCA Titration): −85.5 U/L
- ALP Percentage Change from Baseline to Month 12 (%), Mean (patients with PBC; OCA Titration): −30.5%
- ALP Percentage Change from Baseline to Month 12 (%), Median (patients with PBC; OCA Titration): −31.5%
- Month 12 ALP Concentration (U/L), Mean (patients with PBC; OCA Titration): 219.5 U/L
- Month 12 ALP Concentration (U/L), Median (patients with PBC; OCA Titration): 196.6 U/L
- Month 12 ALP Concentration (×ULN), Mean (patients with PBC; OCA Titration): 1.851 ×ULN
- Month 12 ALP Concentration (×ULN), Median (patients with PBC; OCA Titration): 1.661 ×ULN
- Patients with ALP < 1.67 × ULN at Month 12 (patients with PBC; OCA Titration (N = 70)): (47.1%)
- Patients with Decrease in ALP ≥ 10% at Month 12 (patients with PBC; OCA Titration (N = 70)): (78.6%)
- Patients with Decrease in ALP ≥ 15% at Month 12 (patients with PBC; OCA Titration (N = 70)): (77.1%)
- Patients with Decrease in ALP ≥ 20% at Month 12 (patients with PBC; OCA Titration (N = 70)): (70.0%)
- Patients with Decrease in ALP ≥ 40% at Month 12 (patients with PBC; OCA Titration (N = 70)): (30.0%)
- Patients with Decrease in ALP ≥ 15% at Month 12 (patients with PBC; OCA Titration (N = 70), listed as obeticholic acid): 77%
- Patients who achieved response (ALP<1.67×ULN, ALP reduction ≥15%, TB≤ULN) at Month 6 (patients with PBC; OCA Titration, 5 mg (N = 70)): 24 (34.3%)
- Patients who achieved response (ALP<1.67×ULN, ALP reduction ≥15%, TB≤ULN) at Month 6 (patients with PBC; OCA Titration, 5 mg (N = 70), listed as Obeticholic acid): 24 (34) %
- Patients who achieved response (ALP<1.67×ULN, ALP reduction ≥15%, TB≤ULN) at Month 12 (patients with PBC; OCA Titration, 5 mg or 10 mg (N = 70), listed as Obeticholic acid): 32 (46) %
- Response at Month 6 [1] (patients with PBC; 10 mg OCA (N = 60)): (41.7%)
- Response at Month 12 [1] (patients with PBC; 10 mg OCA (N = 60)): (43.3%)
- Response at Month 6 [1] (patients with PBC; OCA Titration (N = 60)): (35.0%)
- Response at Month 12 [1] (patients with PBC; OCA Titration (N = 60)): (38.3%)
- responders who became non-responders (patients with PBC; continued dosing of 5 mg QD, month 6 to month 12): 19%
- ALP < 1.67 × ULN and Decrease ≥ 15% at Month 6 [3] (patients with PBC; 10 mg OCA): (88.9%)
- ALP < 1.67 × ULN and Decrease ≥ 15% at Month 12 [3] (patients with PBC; 10 mg OCA): (77.8%)
- ALP < 1.67 × ULN at Month 6 [3] (patients with PBC; 10 mg OCA): (94.4%)
- ALP < 1.67 × ULN at Month 12 [3] (patients with PBC; 10 mg OCA): (88.9%)
- Decrease in ALP ≥ 15% at Month 6 [3] (patients with PBC; 10 mg OCA): (88.9%)
- Decrease in ALP ≥ 15% at Month 12 [3] (patients with PBC; 10 mg OCA): (77.8%)
- ALP < 1.67 × ULN and Decrease ≥ 15% at Month 6 [3] (patients with PBC; OCA Titration): (76.9%)
- ALP < 1.67 × ULN and Decrease ≥ 15% at Month 12 [3] (patients with PBC; OCA Titration): (76.9%)
- ALP < 1.67 × ULN at Month 6 [3] (patients with PBC; OCA Titration): (76.9%)
- ALP < 1.67 × ULN at Month 12 [3] (patients with PBC; OCA Titration): (84.6%)
- Decrease in ALP ≥ 15% at Month 6 [3] (patients with PBC; OCA Titration): (84.6%)
- Decrease in ALP ≥ 15% at Month 12 [3] (patients with PBC; OCA Titration): (76.9%)
- ALP < 2.0 × ULN and Decrease ≥ 40% at Month 6 [2] (patients with PBC; 10 mg OCA): (21.4%)
- ALP < 2.0 × ULN and Decrease ≥ 40% at Month 12 [2] (patients with PBC; 10 mg OCA): (28.6%)
- ALP < 2.0 × ULN at Month 6 [2] (patients with PBC; 10 mg OCA): (71.4%)
- ALP < 2.0 × ULN at Month 12 [2] (patients with PBC; 10 mg OCA): (69.1%)
- Decrease in ALP ≥ 40% at Month 6 [2] (patients with PBC; 10 mg OCA): (23.8%)
- Decrease in ALP ≥ 40% at Month 12 [2] (patients with PBC; 10 mg OCA): (31.0%)
- ALP < 2.0 × ULN and Decrease ≥ 40% at Month 6 [2] (patients with PBC; OCA Titration): (23.4%)
- ALP < 2.0 × ULN and Decrease ≥ 40% at Month 12 [2] (patients with PBC; OCA Titration): (27.7%)
- ALP < 2.0 × ULN at Month 6 [2] (patients with PBC; OCA Titration): (51.1%)
- ALP < 2.0 × ULN at Month 12 [2] (patients with PBC; OCA Titration): (59.6%)
- Decrease in ALP ≥ 40% at Month 6 [2] (patients with PBC; OCA Titration): (27.7%)
- Decrease in ALP ≥ 40% at Month 12 [2] (patients with PBC; OCA Titration): (34.0%)
- patients who experienced an increase in ALP (patients with PBC; titration obeticholic acid): 5%
